System: MRSA MW-2
Assay: Prophylactic activity on pigskin
Assay type: cell-based, Staphylococcus aureus
Conditions: treatment dried 1-hour, about 10^3 CFU for 1-hour; chitosan-arginine 60 μg/cm^2 in 70% ethanol (21 kDa, 29% functionalized, FIG. 24); hydrogen peroxide 3%

Q: `CCO` [70% ethanol, ethanol] was tested. Which “prophylactic activity, qualitative CFU recovered from treated skin surface” value did it give?
A: Its value is “no prophylactic activity”.

Q: For `OO` [hydrogen peroxide], which “prophylactic activity, qualitative CFU recovered from treated skin surface” value is on record?
A: Its value is “no prophylactic activity”.
